Literature values in patent US20190203207A1, “Anabolic Enhancers for Ameliorating Neurodegeneration” (priority 2016, published 2019).
Entries after “also recorded” stand apart in the source; their conditions may differ.

System: insulin/mTOR signaling pathway

For insulin, the “GLUT1 and HIF1a levels” value (insulin injection, four RP mouse models) is given as “increased levels” and the “Cone survival / cone degeneration” value (systemic insulin, four RP mouse models (Punzo et al.)) is given as “encouraged cone survival; also recorded: delay degeneration of cones”.
